Read-outs that look alike come from different tables or passages of the source.
Assays:
[1] = Cytotoxicity against MRC-5 fibroblasts; conditions: human
Method: (§1) Cytotoxicity was assayed against MRC-5 fibroblasts. Results are depicted in Tables 4 and 5.

[2] = tested on: T. cruzi Tulahuen CL2 β galactosidase strain; assay: T. cruzi Tulahuen CL2 β galactosidase strain on MRC-5SV2 cells (CPRG); type: cell-based, Trypanosoma cruzi
Method: All cultures and assays were conducted at 37° C./5% CO2. […] The results were expressed as % reduction in parasite burdens compared to control wells from which an EC50 was calculated.

T. brucei Squib 427 = assay: In vitro drug susceptibility, T. brucei Squib 427 (resazurin); type: cell-based, Trypanosoma brucei brucei
Method: (§2) All trypanosome strains were cultured in the standard HMI-9 medium supplemented with 10% fetal bovine serum (FBS) at 37° C. in a 5% CO2 atmosphere.

[3] = tested on: T. b. rhodesiense STIB-900; assay: In vitro drug susceptibility, T. b. rhodesiense STIB-900 (resazurin); type: cell-based, Trypanosoma brucei rhodesiense
Method: as §2

MRC-5 fibroblasts = assay: in vitro
Method: as §1

[4] = MRC-5 fibroblasts, MRC-5 EC50, Table 4, cytotoxicity
[5] = MRC-5 fibroblasts, MRC-5 EC50, Table 5, cytotoxicity
[6] = Trypanosoma cruzi, TULAHUEN, MRC-5 SV2, Table 5, average of 2-4 independent replicates
[7] = Trypanosoma brucei, read-out: T.b. brucei EC50, Table 4, average of 2-6 independent determinations
[8] = Trypanosoma brucei, RHODESIENSE, read-out: T.b. rhod. EC50
[9] = MRC-5 fibroblasts, MRC-5 EC50, Table 1, cytotoxicity
[10] = MRC-5 fibroblasts, MRC-5 EC50, Table 2, cytotoxicity
[11] = Trypanosoma cruzi, TULAHUEN, MRC-5 SV2, Table 2, average of 2-3 independent replicates
[12] = Trypanosoma brucei, read-out: T. brucei brucei EC50, Table 1, average of 2-4 independent determinations
[13] = Trypanosoma brucei, RHODESIENSE, read-out: T. brucei rhod. EC50
[14] = Table 5, average of 2-4 independent replicates
[15] = Table 4, average of 2-6 independent determinations, read-out: T.b. brucei EC50
[16] = Trypanosoma brucei, Table 1, average of 2-4 independent determinations, read-out: T. brucei brucei EC50
[17] = Trypanosoma brucei, RHODESIENSE, Table 1, average of 2-4 independent determinations, read-out: T. brucei rhod. EC50

Row | SMILES | EC50 [1, 4] | EC50 [1, 5] | EC50 [2, 6] | EC50 (T. brucei Squib 427; [7]) | EC50 [3, 8] | EC50 [2, 11] | EC50 (T. brucei Squib 427; [12]) | EC50 [3, 13] | other results
1 | CCCCOc1ncnc2c1c(Cl)cn2[C@@H]1O[C@H](CO)[C@@H](O)[C@H]1O [FH9530, 4-n-butoxy-5-chloro-N7-(β-D-ribofuranosyl)-pyrrolo[2,3-d]pyrimidine] | 1.32 µM | 1.32 µM | 450 nM | 70 nM | 40 nM | – | – | – | –
2 | COc1ncnc2c1c(Cl)cn2[C@@H]1O[C@H](CO)[C@@H](O)[C@H]1O [FH8446, 4-methoxy-5-chloro-N7-(β-D-ribfuranosyl)-pyrrolo[2,3-d]pyrimidine] | 48 µM | 48 µM | 12700 nM | 160 nM | 40 nM | – | – | – | –
3 | Nc1ncnc2c1c(-c1cccnc1)cn2[C@@H]1O[C@H](CO)[C@@H](O)[C@H]1O [FH4185, 4-amino-5-(pyrid-3-yl)-N7-(β-D-ribofuranosyl)-pyrrolo[2,3-d]pyrimidine] | > 64 µM | > 64 µM | 15400 nM | > 64000 nM | – | – | – | – | anti-trypanosomal activity against T. brucei, in words (T. brucei Squib 427): no discernible trypanocidal effects
4 | Nc1ncnc2c1c(Br)cn2[C@@H]1O[C@H](CO)C[C@H]1O [FH7429_U, 4-amino-5-bromo-N7-(3′-deoxy-β-D-ribofuranosyl)-pyrrolo[2,3-d]pyrimidine] | – | – | – | – | – | 20 nM | 2 nM | < 0.5 nM | EC50 [1, 9]: 16.1 µM; EC50 [1, 10]: 16.1 µM
5 | CN(C)c1ncnc2c1c(Br)cn2[C@@H]1O[C@H](CO)C[C@H]1O [FH8522, 4-dimethylamino-5-bromo-N7-(3′-deoxy-β-D-ribofuranosyl)-pyrrolo[2,3-d]pyrimidine] | – | – | – | – | – | 20900 nM | 1880 nM | 790 nM | EC50 [1, 9]: > 64 µM; EC50 [1, 10]: > 64 µM
6 | Nc1ncnc2c1c(Cl)cn2[C@@H]1O[C@H](CO)[C@@H](O)[C@H]1O [FH3169] | – | – | – | – | – | – | – | – | EC50 (MRC-5 fibroblasts): 33.4 µM; EC50 [2, 14]: 520 nM; EC50 (T. brucei Squib 427; [15]): 1330 nM; EC50 ([3]; Table 4, average of 2-6 independent determinations, read-out: T.b. rhod. EC50): 120 nM
7 | CSC[C@@H]1C[C@@H](O)[C@H](n2cc(Br)c3c(N)ncnc32)O1 [FH9527, 4-amino-5-bromo-N7-(3′-deoxy-5′-thiomethyl-β-D-ribofuranosyl)-pyrrolo[2,3-d]pyrimidine] | – | – | – | – | – | – | – | – | EC50 (MRC-5 fibroblasts): 15.3 µM; EC50 ([2]; Table 2, average of 2-3 independent replicates): 25000 nM; EC50 (T. brucei Squib 427; Table 1, average of 2-4 independent determinations, read-out: T. brucei brucei EC50): 32500 nM; EC50 ([3]; Table 1, average of 2-4 independent determinations, read-out: T. brucei rhod. EC50): 22300 nM
8 | CC(C)Oc1ncnc2c1c(Cl)cn2[C@@H]1O[C@H](CO)[C@@H](O)[C@H]1O [FH9531, 4-isopropoxy-5-chloro-N7-(β-D-ribfuranosyl)-pyrrolo[2,3-d]pyrimidine] | > 64 µM | > 64 µM | 22700 nM | 90 nM | 100 nM | – | – | – | –
9 | Nc1ncnc2c1c(Cl)cn2[C@@H]1O[C@H](CO)C[C@H]1O [FH8470] | – | – | – | – | – | 50 nM | 2 nM | 0.4 nM | –
10 | CCCOc1ncnc2c1c(Cl)cn2[C@@H]1O[C@H](CO)[C@@H](O)[C@H]1O [FH9532, 4-n-propoxy-5-chloro-N7-(β-D-ribfuranosyl)-pyrrolo[2,3-d]pyrimidine] | 2.81 µM | 2.81 µM | 1040 nM | 80 nM | 80 nM | – | – | – | –
11 | COc1ncnc2c1c(Br)cn2[C@@H]1O[C@H](CO)[C@@H](O)[C@H]1O [FH9528, 4-methoxy-5-bromo-(N7-β-D-ribofuranosyl)-pyrrolo[2,3-d]pyrimidine] | > 64 µM | > 64 µM | 24100 nM | 190 nM | 40 nM | – | – | – | –
12 | CC(C)(C)[Si](C)(C)O[C@@H]1C[C@@H](CO)O[C@H]1n1cc(Br)c2c(N)ncnc21 [FH9552, 4-amino-5-bromo-N7-(2′-O-t-butyldimethylsilyl-3′-deoxy-β-D-ribofuranosyl)-pyrrolo[2,3-d]pyrimidine] | – | – | – | – | – | – | – | – | EC50 [1]: > 64 µM; EC50 (T. brucei Squib 427; [16]): 630 nM; EC50 [3, 17]: 270 nM
13 | Cn1cnc(-c2cn([C@@H]3O[C@H](CO)[C@@H](O)[C@H]3O)c3ncnc(N)c23)c1 [FH3182] | – | – | – | – | – | – | – | – | EC50 (MRC-5 fibroblasts): 23.4 µM; EC50 [2, 14]: 8340 nM; anti-trypanosomal activity against T. brucei, in words (T. brucei Squib 427): low μM activity; EC50 (T. brucei Squib 427; [15]): 4760 nM
14 | Nc1ncnc2c1c(Br)cn2[C@@H]1O[C@H](CO)C[C@@H]1O [FH10628, 4-amino-5-bromo-N7-(2′-arabino-3′-deoxy-β-D-ribofuranosyl)-pyrrolo[2,3-d]pyrimidine] | – | – | – | – | – | 1470 nM | 130 nM | 30 nM | EC50 [1, 9]: 45.6 µM; EC50 [1, 10]: 45.6 µM
15 | Nc1ncnc2c1c(-c1ccc(F)cn1)cn2[C@@H]1O[C@H](CO)[C@@H](O)[C@H]1O [MS1037, 4-amino-5-(5-fluoro-pyrid-2-yl)-N7-(β-D-ribofuranosyl)-pyrrolo[2,3-d]pyrimidine] | > 64 µM | > 64 µM | 31900 nM | 4770 nM | 1690 nM | – | – | – | –
16 | CCOc1ncnc2c1c(Cl)cn2[C@@H]1O[C@H](CO)[C@@H](O)[C@H]1O [FH9529, 4-ethoxy-5-chloro-N7-(β-D-ribfuranosyl)-pyrrolo[2,3-d]pyrimidine] | 48.5 µM | 48.5 µM | 6290 nM | 120 nM | 60 nM | – | – | – | –
17 | Nc1ncnc2c1c(F)cn2[C@@H]1O[C@H](CO)C[C@H]1O [FH8517, 4-amino-5-fluoro-N7-(3′-deoxy-β-D-ribofuranosyl)-pyrrolo[2,3-d]pyrimidine] | – | – | – | – | – | 1220 nM | 2 nM | 0.3 nM | EC50 [1, 9]: 3.6 µM; EC50 [1, 10]: 3.6 µM
18 | Nc1ncnc2c1c(-c1cccc(Cl)n1)cn2[C@@H]1O[C@H](CO)[C@@H](O)[C@H]1O [MS1034, 4-amino-5-(6-chloro-pyrid-2-yl)-N7-(β-D-ribofuranosyl)-pyrrolo[2,3-d]pyrimidine] | > 64 µM | > 64 µM | > 64000 nM | 1750 nM | 620 nM | – | – | – | –
19 | O=C(Cn1ccnc1[N+](=O)[O-])NCc1ccccc1 [Benznidazole, reference compound] | – | – | – | – | – | 2400 nM | – | – | –
20 | Nc1ncnc2c1c(I)cn2[C@@H]1O[C@H](CO)C[C@H]1O [FH8496, 4-amino-5-iodo-N7-(3′-deoxy-β-D-ribfuranosyl)-pyrrolo[2,3-d]pyrimidine] | – | – | – | – | – | 30 nM | 10 nM | 1 nM | –
21 | Nc1ccnc2c1c(I)cn2[C@@H]1O[C@H](CO)[C@@H](O)[C@H]1O [FH5319, 3-iodo-4-amino-N1-(β-D-ribofuranosyl)-pyrrolo[2,3-b]pyridine] | > 64 µM | > 64 µM | 40 nM | 400 nM | > 64000 nM | – | – | – | –
22 | Cc1ccc(-c2cn([C@@H]3O[C@H](CO)C[C@H]3O)c3ncnc(N)c23)cc1 [FH8481, 4-amino-5-(4-methylphenyl)-N7-(3′-deoxy-β-D-ribofuranosyl)-pyrrolo[2,3-d]pyrimidine] | – | – | – | – | – | 460 nM | 33200 nM | 18400 nM | EC50 [1, 9]: 21 µM; EC50 [1, 10]: 21 µM
23 | CC(C)(C)[Si](C)(C)OC[C@@H]1C[C@@H](O)[C@H](n2cc(Br)c3c(N)ncnc32)O1 [FH8471, 4-Amino-5-Bromo-N7-(3′-Deoxy-5′-O-t-Butyl-Dimethylsilyl)-β-D-Ribofuranosyl-Pyrrolo[2,3-d]pyrimidine] | – | – | – | – | – | – | – | – | EC50 [1]: 5.31 µM; EC50 (T. brucei Squib 427; [16]): 1210 nM; EC50 [3, 17]: 80 nM
24 | Nc1ncnc2c1c(-c1ccc(Cl)cc1Cl)cn2[C@@H]1O[C@H](CO)C[C@H]1O [FH9581, 4-amino-5-(2,4-dichlorophenyl)-N7-(3′-deoxy-β-D-ribofuranosyl)-pyrrolo[2,3-d]pyrimidine] | – | – | – | – | – | 500 nM | 19600 nM | 7300 nM | EC50 [1, 9]: 19.6 µM; EC50 [1, 10]: 19.6 µM
25 | Nc1ncnc2c1ccn2[C@@H]1O[C@H](CO)C[C@@H]1O [FH10650, 4-amino-N7-(2′-arabino-3′-deoxy-β-D-ribofuranosyl)-pyrrolo[2,3-d]pyrimidine] | – | – | – | – | – | > 64000 nM | 6620 nM | 600 nM | EC50 [1, 9]: > 64 µM; EC50 [1, 10]: > 64 µM
26 | C=Cc1cn([C@@H]2O[C@H](CO)C[C@H]2O)c2ncnc(N)c12 [FH10659, 4-amino-5-vinyl-N7-(3′-deoxy-β-D-ribfuranosyl)-pyrrolo[2,3-d]pyrimidine] | – | – | – | – | – | 9440 nM | 40 nM | 5 nM | –
27 | Nc1ncnc2c1c(Br)cn2[C@@H]1O[C@H](CO)[C@@H](O)[C@H]1O [TH1003] | – | – | 390 nM | – | – | – | – | – | EC50 ([1]; MRC-5 EC50): 33.3 µM; EC50 (T. brucei Squib 427; Trypanosoma brucei, Table 4, average of 2-6 independent determinations, read-out: T.b. brucei EC50): 1240 nM; EC50 ([3]; Trypanosoma brucei, RHODESIENSE, Table 4, average of 2-6 independent determinations, read-out: T.b. rhod. EC50): 120 nM
28 | Nc1ncnc2c1c(-c1cnccn1)cn2[C@@H]1O[C@H](CO)[C@@H](O)[C@H]1O [FH3179, 4-amino-5-(pyrazine-2-yl)-N7-(β-D-ribofuranosyl)-pyrrolo[2,3-d]pyrimidine] | 0.55 µM | 0.55 µM | 860 nM | 1950 nM | – | – | – | – | cytotoxicity, in words (MRC-5 fibroblasts): submicromolar cytotoxicity

Reference: patent US11072628B2, “Nucleoside analogues for the treatment of parasitic infections” (UNIVERSITEIT GENT, priority 2017, dated 2021)
